How the values were obtained:
[1] = Gelation capability of gelators, stable-to-inversion of container method (minimum gelation concentration, gel stability and clarity); assay type: physicochemical; parameters: key to minimum gelation concentration (MGC): —: no gel formed; details: for stability of gel (time the gel lasted): aqueous media; for stability of gel (time the gel persisted): in each medium
Method: In order to examine the gelation capability of gelators 1 to 11, the degrees of gelation in various aqueous media were measured as follows, in accordance with the “stable-to-inversion of container” method (Menger, F. M. and Caran, K. L., J. Am. Chem. Soc. 2000, 122, 11679).
Specifically, 0.002 to 0.04 g of each gelator and 1 ml of an aqueous medium (distilled water, 0.9% aqueous NaCl solution, 0.01 M hydrochloric buffer (pH 2.0), 0.05 M phthalate buffer (pH 4.0), 0.08 M MOPSO buffer (pH 7.0) or 0.025 M sodium tetraborate buffer (pH 9.0)) were put into a sealed glass tube (5 mm i.d.), and the mixture was heated at 100° C. until a solution was obtained. The tube was then maintained at room temperature for 5 to 10 min.
Then, the minimum gelation concentration (MGC, wt %), i.e., the lowest concentration of a gelator at which it forms a hydrogel, of each gelator compound was determined, and the result is shown in Table 1.

[2] = Textures of the hydrogels/xerogels by scanning electron microscopy (SEM); assay type: physicochemical; details: gel at MGC in distilled water, freeze-dried
Method: The textures of the hydrogels formed by the gelators prepared in the Examples were examined as follows, employing a scanning electron microscopy (SEM).
First, gelators 1 to 11 were each dissolved in 1 ml of distilled water in an amount ranging from 0.003 to 0.02 g to reach the corresponding MGC listed in Table 1, and the mixture was heated at 100° C. to form a hydrogel. The hydrogel was frozen at −78° C., and freeze-dried for 6 hours to obtain a xerogel.

streptavidin = streptavidin (Streptomyces avidinii, UniProt P22629); test: Influence of ligand-receptor interaction (streptavidin) on the gel state of a hydrogel, SEM; details: 0.002 equivalent of streptavidin, after 1 hour
Method: The influence of ligand-receptor interaction on the gel state of hydrogels was examined as follows.
0.002 g of gelator 9 was added to 1 ml of distilled water, and the mixture was heated at 100° C. to form a hydrogel.

[3] = cited from earlier work
[4] = pH 2 (0.01 M hydrochloric buffer)
[5] = pH 9 (0.025 M sodium tetraborate buffer)

Chain of streptavidin (P22629 25-183, species assumed): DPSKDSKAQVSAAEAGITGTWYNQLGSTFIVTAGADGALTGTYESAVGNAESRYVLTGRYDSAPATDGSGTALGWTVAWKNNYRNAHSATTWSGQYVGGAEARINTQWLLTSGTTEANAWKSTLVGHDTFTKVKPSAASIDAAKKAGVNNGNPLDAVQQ

SMILES	minimum gelation concentration (MGC) ([1]; H2O/0.9% NaCl (aq.))	minimum gelation concentration (MGC) [1, 4]	minimum gelation concentration (MGC) ([1]; pH 4 (0.05 M phthalate buffer))	minimum gelation concentration (MGC) ([1]; pH 7 (0.08 M MOPSO buffer))	minimum gelation concentration (MGC) [1, 5]	melting point [°C]	clarity of gel [1]	stability of gel (time the gel lasted) [1]	structure type of hydrogel (xerogel SEM image) [2]	stability of gel (time the gel persisted) [1]	molecules of water immobilized by one molecule of gelator ([1]; at MGC in distilled water)	gel state after addition of streptavidin (streptavidin)	solubility in organic solvents ([3]; organic solvents)	solubility in water ([3]; water)
CCCCCCC(NC(=O)CCCC[C@@H]1SC[C@@H]2NC(=O)N[C@@H]21)C(=O)O (mixture of isomers) [Gelator 11, N-biotinyl-D,L-2-aminocaprylic acid]	0.6 wt %	0.8 wt %	0.8 wt %	1.7 wt %	3.5 wt %	198.5								
CC[C@H](C)[C@H](NC(=O)CCCC[C@@H]1SC[C@@H]2NC(=O)N[C@@H]21)C(=O)O [Gelator 4, N-biotinyl-L-isoleucine]	1.2 wt %	1.0 wt %	1.2 wt %	2.7 wt %	3.9 wt %	230 to 233	opaque	about 1 week	lamellar structures					
O=C(CCCC[C@@H]1SC[C@@H]2NC(=O)N[C@@H]21)N[C@@H](Cc1ccccc1)C(=O)O [Gelator 1, N-biotinyl-L-phenylalanine]	2.0 wt %	1.5 wt %	2.0 wt %	3.0 wt %	4.0 wt %	205	translucent to opaque		fibrous structures	about 6 months				
O=C(CCCC[C@@H]1SC[C@@H]2NC(=O)N[C@@H]21)N[C@@H](Cc1c[nH]c2ccccc12)C(=O)O [Gelator 7, N-biotinyl-L-tryptophan]	—	—	—	—	—	160 to 161								
CCCC[C@H](NC(=O)CCCC[C@@H]1SC[C@@H]2NC(=O)N[C@@H]21)C(=O)O [Gelator 9, N-biotinyl-L-norleucine]	0.3 wt %	0.2 wt %	0.5 wt %	1.2 wt %	1.5 wt %	172					6,700 molecules of water	disrupted		
CC(C)C[C@H](NC(=O)CCCC[C@@H]1SC[C@@H]2NC(=O)N[C@@H]21)C(=O)O [Gelator 2, N-biotinyl-L-leucine]	1.6 wt %	1.4 wt %	1.8 wt %	2.8 wt %	3.6 wt %	209 to 210	translucent to opaque		fibrous structures	about 6 months				
O=C(O)CCCC[C@@H]1SC[C@@H]2NC(=O)N[C@@H]21 [biotin]													insolubility	1.0-0.8 mmol/L
CCC[C@H](NC(=O)CCCC[C@@H]1SC[C@@H]2NC(=O)N[C@@H]21)C(=O)O [Gelator 8, N-biotinyl-L-norvaline]	1.2 wt %	0.9 wt %	1.2 wt %	2.5 wt %	3.8 wt %	255	opaque	about 1 week	lamellar structures					
CCCCCC(NC(=O)CCCC[C@@H]1SC[C@@H]2NC(=O)N[C@@H]21)C(=O)O (stereo partly drawn) [Gelator 10, N-biotinyl-D,L-2-aminoenantic acid]	0.8 wt %	0.6 wt %	1.0 wt %	2.0 wt %	4.0 wt %									
CC(C)[C@H](NC(=O)CCCC[C@@H]1SC[C@@H]2NC(=O)N[C@@H]21)C(=O)O [Gelator 5, N-biotinyl-L-valine]	1.4 wt %	1.0 wt %	1.4 wt %	2.7 wt %	4.0 wt %	215 to 216	opaque	about 1 week	lamellar structures					
O=C(CCCC[C@@H]1SC[C@@H]2NC(=O)N[C@@H]21)N[C@@H](Cc1ccc(O)cc1)C(=O)O [Gelator 6, N-biotinyl-L-tyrosine]	—	—	—	—	—	259 to 260								
CSCC[C@H](NC(=O)CCCC[C@@H]1SC[C@@H]2NC(=O)N[C@@H]21)C(=O)O [Gelator 3, N-biotinyl-L-methionine]	1.8 wt %	—	—	—	—	207								
